According to ChEMBL document CHEMBL1139011, “Inhibition of hepatitis B virus (HBV) replication by pyrimidines bearing an acyclic moiety: effect on wild-type and mutant HBV” (J Med Chem, 2006):

Assays:
[1] = test system: Hepatitis B virus; experiment: Inhibition of HBV L180M/ M204V mutant transfected in D88 cell line at 10 ug/mL; format: functional
[2] = test system: HepG2; experiment: Cytotoxicity against HepG2 cell by MTT assay; format: functional; settings: Homo sapiens
[3] = test system: Hepatitis B virus; experiment: Inhibition of HBV M204I mutant transfected in B1 cell line at 10 ug/mL; format: functional
[4] = test system: Hepatitis B virus; experiment: Inhibition of wild type HBV transfected in human hepatoblastoma 2.2.15 cells at 10 ug/mL; format: functional; settings: HepG2 2.2.15
[5] = test system: Hepatitis B virus; experiment: Inhibition of wild type HBV transfected in human hepatoblastoma 2.2.15 cells; format: functional, organism-based; settings: HepG2 2.2.15
[6] = test system: Duck hepatitis B virus; experiment: Inhibition of duck HBV transfected in primary duck hepatocytes; format: functional, organism-based; settings: Hepatocyte
[7] = test system: Vero; experiment: Cytotoxicity against Vero cell by MTT assay; format: functional; settings: Chlorocebus sabaeus
[8] = test system: Duck hepatitis B virus; experiment: Inhibition of duck HBV transfected in primary duck hepatocytes at 10 ug/mL; format: functional; settings: Hepatocyte
[9] = test system: Hepatitis B virus; experiment: Inhibition of HBV L180M/ M204V mutant transfected in D88 cell line; format: functional, organism-based
[10] = test system: West Nile virus; experiment: Inhibitory activity against West Nile virus; format: functional, organism-based
[11] = test system: Hepatitis B virus; experiment: Inhibition of HBV M204I mutant transfected in B1 cell line; format: functional, organism-based

Row | Compound | inhibition at 10 µg/mL [1] [%] | CC50 [2] [µM] | inhibition at 10 µg/mL [3] [%] | inhibition at 10 µg/mL [4] [%] | EC50 [5] [µM] | EC50 [6] [µM] | CC50 [7] [µM] | inhibition at 10 µg/mL [8] [%] | EC50 [9] [µM] | EC50 [10] [µM] | EC50 [11] [µM]
1 | O=c1ccn(COCCO)c(=S)[nH]1 | 0 | > 495 | 30 | 42 | > 49.5 | > 49.5 | > 495 | 46 |  |  | 
2 | Nc1cn(COCCO)c(=O)[nH]c1=O | 30 | > 497 | 30 | 50 | 50 | 5 | > 497 | 65 |  |  | 
3 | COC(=O)c1cc(=O)[nH]c(=O)n1COCCO | 0 | > 409 | 0 | 60 | 40.9 | 40.9 | > 409 | 56 |  |  | 
4 | CCc1cn(COCCO)c(=S)[nH]c1=O | 40 | > 478 | 20 | 40 | > 47.8 | > 47.8 | > 478 | 45 | > 47.8 |  | 
5 | Cc1c([N+](=O)[O-])c(=O)[nH]c(=O)n1COCCO | 20 | > 408 | 25 | 60 | 20.4 | 20.4 | > 408 | 68 |  |  | 
6 | CCOC(=O)c1cn(COCCO)c(=S)[nH]c1=O | 0 | > 364 | 20 | 50 | 18.2 | 36.4 | > 364 | 53 |  |  | 
7 | O=c1[nH]c(=O)n(COCCO)cc1[N+](=O)[O-] | 0 | > 432 | 30 | 54 | 43.2 | 43.2 | > 432 | 53 |  | > 134 | 
8 | O=c1[nH]c(=O)n(COCCO)cc1CO | 30 | > 476 | 0 | 50 | 23.8 | 47.6 | > 476 | 55 |  |  | 
9 | O=c1[nH]c(=O)n(COCCO)cc1C(F)(F)F | 50 | > 393 | 53 | 55 | 19.6 | 3.9 | > 393 | 76 | 39.3 |  | 39.3
10 | Nc1ccn([C@@H]2CS[C@H](CO)O2)c(=O)n1 [LAMIVUDINE] | 30 |  | 45 | 88 | 2.1 | 0.04 |  | 96 |  |  | > 44
11 | O=c1[nH]c(=O)n(COCCO)cc1I |  | > 320 |  |  |  | 32 | > 320 | 50 |  |  | 
12 | O=c1[nH]c(=O)n(COCCO)cc1Br | 73 | > 377 | 67 | 60 | 18.5 | 3.7 | > 377 | 89 | 3.7 |  | 18.5
13 | Nc1nc(NC2CC2)c2ncn([C@H]3C=C[C@@H](CO)C3)c2n1 [ABACAVIR] | 72 |  | 80 |  |  |  |  |  | 3.4 |  | 3.4
14 | O=c1[nH]c(=O)n(COCCO)cc1Cl | 70 | > 454 | 69 | 82 | 4.5 | 0.4 | > 454 | 94 | 4.5 |  | 4.5
15 | O=c1cnn(COCCO)c(=O)[nH]1 |  | > 534 |  | 25 | > 53 | > 53 | > 534 | 25 |  |  | 
16 | Cc1c(I)c(=O)[nH]c(=O)n1COCCO | 25 | > 306 | 30 | 53 | 30.6 | 30.6 | > 306 | 51 |  |  | 
17 | Cc1cc(=O)[nH]c(=O)n1COCCO | 0 | > 500 | 30 | 55 | 25 | 25 | > 500 | 60 |  |  | 
